Data taken from patent US10738028B2, “Spiro three-membered ring, spiro five-membered ring peptide deformylase inhibitor and use thereof in antibacteria and anti-tumor” (priority 2016, dated 2020).

Columns and labels:
Assay type in all cases: cell-based
[1] = system: Enterococcus faecalis (EFA); assay: MIC, two-fold agar dilution (CLSI), clinical isolates
Summary of the method: (§1)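 Susceptibility was tested using CLSI two-fold agar dilution against the strains examined.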

[2] = system: Escherichia coli (including ESBLs, non-ESBLs); assay: as above; conditions: for Anti-bacterial activity (MIC), strain ECO+ 15-1: clinical isolate ECO+ 15-1; for Anti-bacterial activity (MIC), strain ECO+ 15-2: clinical isolate ECO+ 15-2; for Anti-bacterial activity (MIC), strain ECO+ 15-3: clinical isolate ECO+ 15-3; for Anti-bacterial activity (MIC), strain ECO+ 15-4: clinical isolate ECO+ 15-4; for Anti-bacterial activity (MIC), strain ECO− 15-1: clinical isolate ECO− 15-1; for Anti-bacterial activity (MIC), strain ECO− 15-2: clinical isolate ECO− 15-2; for Anti-bacterial activity (MIC), strain ECO− 15-3: clinical isolate ECO− 15-3; for Anti-bacterial activity (MIC), strain ECO− 15-4: clinical isolate ECO− 15-4
Summary of the method: as §1

[3] = system: Moraxella catarrhalis (BCA); assay: as above
Summary of the method: as §1

[4] = system: methicillin-sensitive Staphylococcus epidermidis (MSSE); assay: as above; conditions: for Anti-bacterial activity (MIC), strain MSSE 15-4: clinical isolate MSSE 15-4; for Anti-bacterial activity (MIC), strain MSSE 15-5: clinical isolate MSSE 15-5; for Anti-bacterial activity (MIC), strain MSSE 15-6: clinical isolate MSSE 15-6
Summary of the method: as §1

[5] = system: methicillin-sensitive Staphylococcus aureus (MSSA); assay: as above; conditions: for Anti-bacterial activity (MIC), strain MSSA 15-3: clinical isolate MSSA 15-3; for Anti-bacterial activity (MIC), strain MSSA 15-4: clinical isolate MSSA 15-4; for Anti-bacterial activity (MIC), strain MSSA 15-5: clinical isolate MSSA 15-5; for Anti-bacterial activity (MIC), strain MSSA 15-6: clinical isolate MSSA 15-6
Summary of the method: as §1

[6] = system: methicillin-resistant Staphylococcus aureus (MRSA); assay: as above; conditions: for Anti-bacterial activity (MIC), strain MRSA 15-1: clinical isolate MRSA 15-1; for Anti-bacterial activity (MIC), strain MRSA 15-2: clinical isolate MRSA 15-2; for Anti-bacterial activity (MIC), strain MRSA 15-3: clinical isolate MRSA 15-3; for Anti-bacterial activity (MIC), strain MRSA 15-4: clinical isolate MRSA 15-4
Summary of the method: as §1

[7] = system: Streptococcus pneoumoniae (SPN); assay: as above
Summary of the method: as §1

[8] = system: Enterococcus faecium (EFM); assay: as above
Summary of the method: as §1

[9] = system: methicillin-resistant Staphylococcus epidermidis (MRSE); assay: as above; conditions: for Anti-bacterial activity (MIC), strain MRSE 15-1: clinical isolate MRSE 15-1; for Anti-bacterial activity (MIC), strain MRSE 15-2: clinical isolate MRSE 15-2; for Anti-bacterial activity (MIC), strain MRSE 15-3: clinical isolate MRSE 15-3; for Anti-bacterial activity (MIC), strain MRSE 15-7: clinical isolate MRSE 15-7
Summary of the method: as §1

[10] = system: A549 lung cancer cell line; assay: CCK-8 proliferation inhibition; conditions: concentration of 30 μM; for inhibition at 30 µM: Homo sapiens, A549, 72 h; for Inhibition of proliferation, Lung cancer A549: 72 hours, 30 µM
Summary of the method: (§2)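 Plating at 2000 cells/well, then incubation overnight at 37° C. Next, a range of compound concentrations for 72 hours (control 1‰ DMSO). Finally, medium decanted and CCK-8 diluted 1:10 added.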

[11] = system: BEL-7402 liver cancer cell line; assay: CCK-8 proliferation inhibition; conditions: concentration of 30 μM, 72 hours, 30 µM
Summary of the method: as §2

[12] = system: MGC-803 gastric cancer cell line; assay: CCK-8 proliferation inhibition; conditions: concentration of 30 μM; for Inhibition of proliferation, Gastric cancer MGC-803: 72 hours, 30 µM
Summary of the method: as §2

[13] = system: HCT-116 colorectal cancer cell line; assay: CCK-8 proliferation inhibition; conditions: concentration of 30 μM; 72 hours; CCK-8; 30 µM
Summary of the method: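 Growth inhibition is read by CCK-8 (1:10 dilution) after 72 h of compound exposure. HCT-116 cells grow in McCoy's 5A containing 10% newborn bovine serum at 2000 cells/well, with 1‰ DMSO as vehicle control.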

Cc1cnc(NC(=O)[C@@H]2CC3(CC3)CN2C(=O)[C@@H](CC(=O)NO)CC2CCCC2)s1 [Example 65]
Anti-bacterial activity (MIC), strain EFA 15-1 ([1]; clinical isolate EFA 15-1): 32 µg/mL | Anti-bacterial activity (MIC), strain EFA 15-2 ([1]; clinical isolate EFA 15-2): 32 µg/mL | Anti-bacterial activity (MIC), strain EFA 15-3 ([1]; clinical isolate EFA 15-3): 32 µg/mL | Anti-bacterial activity (MIC), strain EFA 15-4 ([1]; clinical isolate EFA 15-4): 32 µg/mL | Anti-bacterial activity (MIC), strain EFA 15-5 ([1]; clinical isolate EFA 15-5): 32 µg/mL | Anti-bacterial activity (MIC), strain EFA 15-6 ([1]; clinical isolate EFA 15-6): > 32 µg/mL | Anti-bacterial activity (MIC), strain EFA 15-9 ([1]; clinical isolate EFA 15-9): 4 µg/mL | Anti-bacterial activity (MIC), strain ECO+ 15-1 [2]: 8 µg/mL | Anti-bacterial activity (MIC), strain ECO+ 15-2 [2]: 8 µg/mL | Anti-bacterial activity (MIC), strain ECO+ 15-3 [2]: 16 µg/mL | Anti-bacterial activity (MIC), strain ECO+ 15-4 [2]: 16 µg/mL | Anti-bacterial activity (MIC), strain ECO− 15-1 [2]: 8 µg/mL | Anti-bacterial activity (MIC), strain ECO− 15-2 [2]: 16 µg/mL | Anti-bacterial activity (MIC), strain ECO− 15-3 [2]: 16 µg/mL | Anti-bacterial activity (MIC), strain ECO− 15-4 [2]: 8 µg/mL | Anti-bacterial activity (MIC), strain BCA 14-1 ([3]; clinical isolate BCA 14-1): 0.5 µg/mL | Anti-bacterial activity (MIC), strain BCA 14-4 ([3]; clinical isolate BCA 14-4): 0.5 µg/mL | Anti-bacterial activity (MIC), strain BCA 14-5 ([3]; clinical isolate BCA 14-5): 0.125 µg/mL | Anti-bacterial activity (MIC), strain BCA 14-6 ([3]; clinical isolate BCA 14-6): 0.125 µg/mL | Anti-bacterial activity (MIC), strain BCA 14-7 ([3]; clinical isolate BCA 14-7): 0.5 µg/mL | Anti-bacterial activity (MIC), strain BCA 14-8 ([3]; clinical isolate BCA 14-8): 0.5 µg/mL | Anti-bacterial activity (MIC), strain BCA 14-10 ([3]; clinical isolate BCA 14-10): 0.125 µg/mL | Anti-bacterial activity (MIC), strain MSSE 15-4 [4]: 0.125 µg/mL | Anti-bacterial activity (MIC), strain MSSE 15-5 [4]: 0.06 µg/mL | Anti-bacterial activity (MIC), strain MSSE 15-6 [4]: 0.015 µg/mL | Anti-bacterial activity (MIC), strain MSSA 15-3 [5]: 0.125 µg/mL | Anti-bacterial activity (MIC), strain MSSA 15-4 [5]: 0.015 µg/mL | Anti-bacterial activity (MIC), strain MSSA 15-5 [5]: 0.015 µg/mL | Anti-bacterial activity (MIC), strain MSSA 15-6 [5]: 16 µg/mL | Anti-bacterial activity (MIC), strain MRSA 15-1 [6]: 0.06 µg/mL | Anti-bacterial activity (MIC), strain MRSA 15-2 [6]: 0.125 µg/mL | Anti-bacterial activity (MIC), strain MRSA 15-3 [6]: 0.06 µg/mL | Anti-bacterial activity (MIC), strain MRSA 15-4 [6]: 0.125 µg/mL | Anti-bacterial activity (MIC), strain SPN 16-2 ([7]; clinical isolate SPN 16-2): 0.125 µg/mL | Anti-bacterial activity (MIC), strain SPN 16-4 ([7]; clinical isolate SPN 16-4): 0.06 µg/mL | Anti-bacterial activity (MIC), strain EFM 15-1 ([8]; clinical isolate EFM 15-1): > 32 µg/mL | Anti-bacterial activity (MIC), strain EFM 15-2 ([8]; clinical isolate EFM 15-2): > 32 µg/mL | Anti-bacterial activity (MIC), strain EFM 15-3 ([8]; clinical isolate EFM 15-3): > 32 µg/mL | Anti-bacterial activity (MIC), strain EFM 15-4 ([8]; clinical isolate EFM 15-4): 0.25 µg/mL | Anti-bacterial activity (MIC), strain EFM 15-5 ([8]; clinical isolate EFM 15-5): 0.125 µg/mL | Anti-bacterial activity (MIC), strain EFM 15-6 ([8]; clinical isolate EFM 15-6): 1 µg/mL | Anti-bacterial activity (MIC), strain MRSE 15-1 [9]: 0.015 µg/mL | Anti-bacterial activity (MIC), strain MRSE 15-2 [9]: 0.125 µg/mL | Anti-bacterial activity (MIC), strain MRSE 15-3 [9]: 0.125 µg/mL | Anti-bacterial activity (MIC), strain MRSE 15-7 [9]: 0.125 µg/mL | inhibition at 30 µM [10]: > 50% | Inhibition of proliferation, Lung cancer A549 [10]: 67% | Inhibition of proliferation, Liver cancer BEL-7402 [11]: 81% | Inhibition of proliferation, Gastric cancer MGC-803 [12]: 72% | HCT116 inhibition rate/% [13]: 83%

O=C(C[C@@H](CC1CCCC1)C(=O)N1CC2(CC2)C[C@H]1C(=O)Nc1cccnn1)NO [Example 66]
Anti-bacterial activity (MIC) ([1]; strain EFA 15-1): 4 µg/mL | Anti-bacterial activity (MIC) ([1]; strain EFA 15-2): 4 µg/mL | Anti-bacterial activity (MIC) ([1]; strain EFA 15-3): 2 µg/mL | Anti-bacterial activity (MIC) ([1]; strain EFA 15-4): 16 µg/mL | Anti-bacterial activity (MIC) ([1]; strain EFA 15-5): 16 µg/mL | Anti-bacterial activity (MIC) ([1]; strain EFA 15-6): 16 µg/mL | Anti-bacterial activity (MIC) ([1]; strain EFA 15-9): 16 µg/mL | Anti-bacterial activity (MIC), strain ECO+ 15-1 [2]: 16 µg/mL | Anti-bacterial activity (MIC), strain ECO+ 15-2 [2]: 32 µg/mL | Anti-bacterial activity (MIC), strain ECO+ 15-3 [2]: 16 µg/mL | Anti-bacterial activity (MIC), strain ECO+ 15-4 [2]: 16 µg/mL | Anti-bacterial activity (MIC), strain ECO− 15-1 [2]: 16 µg/mL | Anti-bacterial activity (MIC), strain ECO− 15-2 [2]: 16 µg/mL | Anti-bacterial activity (MIC), strain ECO− 15-3 [2]: 32 µg/mL | Anti-bacterial activity (MIC), strain ECO− 15-4 [2]: 8 µg/mL | Anti-bacterial activity (MIC) ([3]; strain BCA 14-1): 2 µg/mL | Anti-bacterial activity (MIC) ([3]; strain BCA 14-4): 2 µg/mL | Anti-bacterial activity (MIC) ([3]; strain BCA 14-5): 2 µg/mL | Anti-bacterial activity (MIC) ([3]; strain BCA 14-6): 2 µg/mL | Anti-bacterial activity (MIC) ([3]; strain BCA 14-7): 2 µg/mL | Anti-bacterial activity (MIC) ([3]; strain BCA 14-8): 2 µg/mL | Anti-bacterial activity (MIC) ([3]; strain BCA 14-10): 0.5 µg/mL | Anti-bacterial activity (MIC), strain MSSE 15-3 ([4]; clinical isolate MSSE 15-3): 0.06 µg/mL | Anti-bacterial activity (MIC), strain MSSE 15-4 [4]: 1 µg/mL | Anti-bacterial activity (MIC), strain MSSE 15-5 [4]: 1 µg/mL | Anti-bacterial activity (MIC), strain MSSE 15-6 [4]: 0.06 µg/mL | Anti-bacterial activity (MIC), strain MSSA 15-3 [5]: 1 µg/mL | Anti-bacterial activity (MIC), strain MSSA 15-4 [5]: 0.5 µg/mL | Anti-bacterial activity (MIC), strain MSSA 15-5 [5]: 0.5 µg/mL | Anti-bacterial activity (MIC), strain MSSA 15-6 [5]: 32 µg/mL | Anti-bacterial activity (MIC), strain MRSA 15-1 [6]: 0.5 µg/mL | Anti-bacterial activity (MIC), strain MRSA 15-2 [6]: 2 µg/mL | Anti-bacterial activity (MIC), strain MRSA 15-3 [6]: 0.5 µg/mL | Anti-bacterial activity (MIC), strain MRSA 15-4 [6]: 1 µg/mL | Anti-bacterial activity (MIC) ([7]; strain SPN 16-2): 0.25 µg/mL | Anti-bacterial activity (MIC) ([7]; strain SPN 16-4): 0.25 µg/mL | Anti-bacterial activity (MIC) ([8]; strain EFM 15-1): 16 µg/mL | Anti-bacterial activity (MIC) ([8]; strain EFM 15-2): 16 µg/mL | Anti-bacterial activity (MIC) ([8]; strain EFM 15-3): 16 µg/mL | Anti-bacterial activity (MIC) ([8]; strain EFM 15-4): 1 µg/mL | Anti-bacterial activity (MIC) ([8]; strain EFM 15-5): 0.125 µg/mL | Anti-bacterial activity (MIC) ([8]; strain EFM 15-6): 0.5 µg/mL | Anti-bacterial activity (MIC), strain MRSE 15-1 [9]: 0.25 µg/mL | Anti-bacterial activity (MIC), strain MRSE 15-2 [9]: 1 µg/mL | Anti-bacterial activity (MIC), strain MRSE 15-3 [9]: 1 µg/mL | Anti-bacterial activity (MIC), strain MRSE 15-7 [9]: 1 µg/mL | inhibition at 30 µM [10]: > 50% | Inhibition of proliferation, Lung cancer A549 [10]: 56% | Inhibition of proliferation, Liver cancer BEL-7402 [11]: 74% | inhibition at 30 µM ([12]; Homo sapiens, MGC-803, 72 h): > 50% | Inhibition of proliferation, Gastric cancer MGC-803 [12]: 60% | HCT116 inhibition rate/% [13]: 75%
